Experimental data: paper PMC5608804, “Stepwise Evolution Improves Identification of Diverse Peptides Binding to a Protein Target” (Scientific Reports, 2017)

Target: T1, streptavidin (Streptomyces avidinii, UniProt P22629)
T1 construct: purchased GE Healthcare (Little Chalfont, UK)
Assay: Cy5-streptavidin binding on HotSpot discovery array, 5-mer L-peptide library
Settings: 5-mer L-peptide library array, Cy5-streptavidin; from average of three arrays
Outline: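 Array of 2,476,099 5-mer peptides (19 amino acids, no cysteine) with Gly-Ser linkers, probed overnight at 4 °C with 0.5 µg/ml Cy5-streptavidin in Tris pH 7.4 buffer containing casein or BSA plus Tween-20. Cy5 fluorescence read at 635 nm; peptides selected by signal-to-background >4 across three arrays.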

T1 sequence (P22629 25-183): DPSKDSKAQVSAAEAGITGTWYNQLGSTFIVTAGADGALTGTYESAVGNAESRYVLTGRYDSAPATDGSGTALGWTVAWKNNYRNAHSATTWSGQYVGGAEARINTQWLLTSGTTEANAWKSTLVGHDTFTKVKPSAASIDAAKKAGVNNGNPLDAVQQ

Going from PQHPQ to YHPQK, the “S/B (signal to background ratio)” value falls from 136.1 to 19.8.

First: LGHPQ
Second: SHPQY
The “S/B (signal to background ratio)” value of the first is higher: 171.2 for the first, 47.6 for the second.

Compared with WHPQA, MHPMV is lower in “S/B (signal to background ratio)” value: 172.2 for the first, 20.7 for the second.

Compared with EPHPM, WLHPQ is higher in “S/B (signal to background ratio)” value: 23.1 for the first, 190.9 for the second.

Going from “LAMFH [L-amino acid 5-mer array peptide]” to YHPQY, the “S/B (signal to background ratio)” value rises from 21.1 to 49.3.

Going from HHPQA to HHPQR, the “S/B (signal to background ratio)” value falls from 145.4 to 35.2.

Going from THPQY to HPQGV, the “S/B (signal to background ratio)” value rises from 30.1 to 45.0.

Compared with PHPQI, VEHPQ is higher in “S/B (signal to background ratio)” value: 22.5 for the first, 55.4 for the second.

First: MAHPQ
Second: HPQRW
The “S/B (signal to background ratio)” value of the first is higher: 140.8 for the first, 30.7 for the second.

Compared with HPQVQ, NHPQQ is lower in “S/B (signal to background ratio)” value: 49.2 for the first, 42.3 for the second.

First: DHPMG
Second: HLHPM
The “S/B (signal to background ratio)” value of the first is lower: 29.8 for the first, 40.7 for the second.

First: THPQA
Second: YAHPQ
The “S/B (signal to background ratio)” value of the first is lower: 140.8 for the first, 186.2 for the second.

Compared with GAHPQ, LNHPQ is higher in “S/B (signal to background ratio)” value: 136.7 for the first, 152.2 for the second.

Going from DYHPM to HPQQN, the “S/B (signal to background ratio)” value falls from 28.4 to 23.0.

First: TYHPQ
Second: TSHPQ
The “S/B (signal to background ratio)” value of the first is higher: 168.9 for the first, 122.6 for the second.

First: HPQYG
Second: NPHPM
The “S/B (signal to background ratio)” value of the first is higher: 55.1 for the first, 40.3 for the second.

Going from GTHPQ to YFHPQ, the “S/B (signal to background ratio)” value rises from 132.9 to 183.4.

First: HPQGP
Second: RGHPQ
The “S/B (signal to background ratio)” value of the first is higher: 162.1 for the first, 135.0 for the second.

For RYHPQ, the “S/B (signal to background ratio)” value was 175.9.

Same assay, conditions: 5-mer L-peptide library array, Cy5-streptavidin; from the average of three arrays

Compared with GWHPM, HPQNA is higher in “S/B (signal to background ratio)” value: 97.0 for the first, 108.8 for the second.

First: HPQFQ
Second: QHHPM
The “S/B (signal to background ratio)” value of the first is higher: 90.6 for the first, 64.4 for the second.

Compared with EFHPQ, HPQNT is lower in “S/B (signal to background ratio)” value: 100.0 for the first, 67.6 for the second.

Going from YPHPM to KHHPQ, the “S/B (signal to background ratio)” value falls from 98.4 to 96.3.

Compared with KVHPQ, YHPMA is higher in “S/B (signal to background ratio)” value: 65.5 for the first, 80.6 for the second.

Compared with KIHPQ, HPQNS is higher in “S/B (signal to background ratio)” value: 60.4 for the first, 112.6 for the second.

Going from KHPQN to QKHPQ, the “S/B (signal to background ratio)” value rises from 64.6 to 86.0.

Compared with HPQNN, AYHPM is lower in “S/B (signal to background ratio)” value: 112.8 for the first, 66.7 for the second.

In the case of HPQGD, the “S/B (signal to background ratio)” value is reported as 62.3.

Same assay, conditions: 5-mer L-peptide library, from the average of three arrays

First: FFMMF [L-amino acid 5-mer array peptide]
Second: HPMSY
The “S/B (signal to background ratio)” value of the first is lower: 4.3 for the first, 4.8 for the second.

Going from “IAAYH [L-amino acid 5-mer array peptide]” to WGHPH, the “S/B (signal to background ratio)” value falls from 4.8 to 4.1.

In the case of FHPQE, the “S/B (signal to background ratio)” value is reported as 5.1.

Same assay, conditions: average of three arrays, L-peptide 5-mer library

First: LAMFH [L-amino acid 5-mer array peptide]
Second: FFMMF [L-amino acid 5-mer array peptide]
The “S/B (signal to background ratio)” value of the first is higher: 21.1 for the first, 4.3 for the second.

First: IAAYH [L-amino acid 5-mer array peptide]
Second: LATFH [L-amino acid 5-mer array peptide]
The “S/B (signal to background ratio)” value of the first is lower: 4.8 for the first, 6.2 for the second.

Compared with “LAFYH [L-amino acid 5-mer array peptide]”, “FDNWL [L-amino acid 5-mer array peptide]” is higher in “S/B (signal to background ratio)” value: 7.8 for the first, 9.9 for the second.

“FDKWL [L-amino acid 5-mer array peptide]” was tested, and the “S/B (signal to background ratio)” value was 15.9.

Same assay, conditions: signal to background ratio; 5-mer L-peptide library array, Cy5-streptavidin

Compared with DDHPM, HPQAV is higher in S/B: 11.6 for the first, 17.8 for the second.

First: HPMTP
Second: PHPMF
The S/B of the first is lower: 5.6 for the first, 10.9 for the second.

Compared with HPQKN, HPMYM is higher in S/B: 7.8 for the first, 8.3 for the second.

First: LATFH [L-amino acid 5-mer array peptide]
Second: HPQTQ
The S/B of the first is higher: 6.2 for the first, 5.4 for the second.

Going from “LAFYH [L-amino acid 5-mer array peptide]” to “FDNWL [L-amino acid 5-mer array peptide]”, the S/B rises from 7.8 to 9.9.

Going from HPLPW to “FDKWL [L-amino acid 5-mer array peptide]”, the S/B rises from 8.0 to 15.9.

Going from GHPQW to HPQPP, the S/B falls from 18.1 to 6.0.

Going from KHPMS to HPQRD, the S/B rises from 8.8 to 10.7.

First: QHPMI
Second: HPQWA
The S/B of the first is lower: 6.4 for the first, 8.4 for the second.

First: PMPDE
Second: HHPQL
The S/B of the first is higher: 6.3 for the first, 5.7 for the second.
